Experimental data: PMC11864979, “First-in-class ultralong-target-residence-time p38α inhibitors as a mitosis-targeted therapy for colorectal cancer” (Nature Cancer, 2025)
Like-named read-outs stand apart in the source and are kept apart here.

Key:
Test in all cases: selectivity profiling in a panel of 340 wild-type kinases (Reaction Biology Europe)
Assay type in all cases: binding
340 wild-type kinases [1] = target: T1, 340 wild-type kinases (Homo sapiens, UniProt Q13177)
T1 construct: purchased Reaction Biology Europe

340 wild-type kinases [2] = target: T2, 340 wild-type kinases (Homo sapiens, UniProt Q13237)
T2 construct: purchased Reaction Biology Europe
T2 sequence (Q13237 1-762): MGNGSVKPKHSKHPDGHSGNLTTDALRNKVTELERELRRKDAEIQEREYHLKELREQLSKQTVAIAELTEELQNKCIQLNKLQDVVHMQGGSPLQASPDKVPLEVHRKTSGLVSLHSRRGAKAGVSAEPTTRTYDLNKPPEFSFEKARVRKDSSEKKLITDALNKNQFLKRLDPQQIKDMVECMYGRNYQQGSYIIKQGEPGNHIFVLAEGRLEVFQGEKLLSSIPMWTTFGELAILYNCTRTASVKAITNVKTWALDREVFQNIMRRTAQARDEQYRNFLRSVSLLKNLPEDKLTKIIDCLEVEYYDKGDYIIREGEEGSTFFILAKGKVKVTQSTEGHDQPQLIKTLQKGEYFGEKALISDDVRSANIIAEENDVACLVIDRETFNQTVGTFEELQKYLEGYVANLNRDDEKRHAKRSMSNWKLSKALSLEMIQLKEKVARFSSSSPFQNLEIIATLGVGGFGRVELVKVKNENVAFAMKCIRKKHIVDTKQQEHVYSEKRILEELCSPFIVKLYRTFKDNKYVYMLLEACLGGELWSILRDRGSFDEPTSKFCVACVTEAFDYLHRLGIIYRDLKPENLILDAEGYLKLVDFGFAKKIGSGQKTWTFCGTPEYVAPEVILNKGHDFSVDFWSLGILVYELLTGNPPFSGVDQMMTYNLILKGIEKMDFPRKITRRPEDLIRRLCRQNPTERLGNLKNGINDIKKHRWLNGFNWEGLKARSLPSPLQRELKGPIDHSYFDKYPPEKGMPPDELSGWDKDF

340 wild-type kinases [3] = target: T3, 340 wild-type kinases (Homo sapiens, UniProt P45984)
T3 construct: purchased Reaction Biology Europe

340 wild-type kinases [4] = target: T4, 340 wild-type kinases (Homo sapiens, UniProt Q9UHD2)
T4 construct: purchased Reaction Biology Europe
T4 sequence (Q9UHD2 1-729): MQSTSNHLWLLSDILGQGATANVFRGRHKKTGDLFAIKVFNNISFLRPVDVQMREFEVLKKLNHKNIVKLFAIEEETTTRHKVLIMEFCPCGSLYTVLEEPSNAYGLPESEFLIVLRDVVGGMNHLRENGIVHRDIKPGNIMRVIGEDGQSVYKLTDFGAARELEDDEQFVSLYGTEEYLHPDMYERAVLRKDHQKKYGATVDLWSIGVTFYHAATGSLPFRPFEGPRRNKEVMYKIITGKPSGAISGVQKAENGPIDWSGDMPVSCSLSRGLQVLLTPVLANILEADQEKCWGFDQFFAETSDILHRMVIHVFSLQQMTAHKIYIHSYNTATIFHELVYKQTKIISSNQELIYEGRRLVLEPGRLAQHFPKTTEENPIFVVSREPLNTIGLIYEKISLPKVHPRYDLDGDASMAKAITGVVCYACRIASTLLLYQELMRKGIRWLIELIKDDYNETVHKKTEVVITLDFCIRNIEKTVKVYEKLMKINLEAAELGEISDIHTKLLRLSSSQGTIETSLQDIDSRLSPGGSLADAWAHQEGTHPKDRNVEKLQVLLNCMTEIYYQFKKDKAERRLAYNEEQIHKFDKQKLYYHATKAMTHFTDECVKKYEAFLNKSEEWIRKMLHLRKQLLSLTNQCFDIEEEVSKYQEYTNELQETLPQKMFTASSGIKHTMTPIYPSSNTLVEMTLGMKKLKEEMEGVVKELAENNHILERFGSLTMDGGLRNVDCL

340 wild-type kinases [5] = target: T5, 340 wild-type kinases (Homo sapiens, UniProt O14920)
T5 construct: purchased Reaction Biology Europe
T5 sequence (O14920 1-756): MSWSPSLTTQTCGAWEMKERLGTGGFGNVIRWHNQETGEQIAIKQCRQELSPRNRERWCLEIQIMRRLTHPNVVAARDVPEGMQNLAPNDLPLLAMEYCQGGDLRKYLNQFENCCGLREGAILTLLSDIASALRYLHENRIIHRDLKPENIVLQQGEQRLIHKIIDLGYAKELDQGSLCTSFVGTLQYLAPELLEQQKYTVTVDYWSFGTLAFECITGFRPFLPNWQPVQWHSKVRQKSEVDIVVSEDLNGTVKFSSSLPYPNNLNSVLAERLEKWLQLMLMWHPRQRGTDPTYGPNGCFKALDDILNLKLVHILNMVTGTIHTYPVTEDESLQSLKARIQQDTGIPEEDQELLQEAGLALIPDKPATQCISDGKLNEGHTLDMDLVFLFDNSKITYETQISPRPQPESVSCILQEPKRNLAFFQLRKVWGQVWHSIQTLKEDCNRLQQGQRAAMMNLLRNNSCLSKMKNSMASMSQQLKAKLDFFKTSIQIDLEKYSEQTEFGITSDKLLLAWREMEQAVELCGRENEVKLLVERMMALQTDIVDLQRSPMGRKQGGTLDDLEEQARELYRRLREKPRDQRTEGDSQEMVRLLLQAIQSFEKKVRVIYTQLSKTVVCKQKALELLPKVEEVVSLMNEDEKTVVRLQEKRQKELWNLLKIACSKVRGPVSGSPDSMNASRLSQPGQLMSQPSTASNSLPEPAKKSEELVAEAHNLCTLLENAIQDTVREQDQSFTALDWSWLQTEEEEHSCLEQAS

T3 sequence (P45984 whole entry): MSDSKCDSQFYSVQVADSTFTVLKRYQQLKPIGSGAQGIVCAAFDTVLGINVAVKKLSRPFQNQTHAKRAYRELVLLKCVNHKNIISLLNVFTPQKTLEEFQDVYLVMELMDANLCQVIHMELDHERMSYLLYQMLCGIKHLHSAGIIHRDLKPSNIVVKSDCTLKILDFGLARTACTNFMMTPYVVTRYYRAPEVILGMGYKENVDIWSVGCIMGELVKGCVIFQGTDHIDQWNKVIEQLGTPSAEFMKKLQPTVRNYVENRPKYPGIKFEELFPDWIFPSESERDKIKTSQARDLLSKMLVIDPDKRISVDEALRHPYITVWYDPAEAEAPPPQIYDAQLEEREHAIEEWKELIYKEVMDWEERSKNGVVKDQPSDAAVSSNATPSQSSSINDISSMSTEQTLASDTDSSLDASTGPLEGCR
T1 sequence (Q13177 whole entry): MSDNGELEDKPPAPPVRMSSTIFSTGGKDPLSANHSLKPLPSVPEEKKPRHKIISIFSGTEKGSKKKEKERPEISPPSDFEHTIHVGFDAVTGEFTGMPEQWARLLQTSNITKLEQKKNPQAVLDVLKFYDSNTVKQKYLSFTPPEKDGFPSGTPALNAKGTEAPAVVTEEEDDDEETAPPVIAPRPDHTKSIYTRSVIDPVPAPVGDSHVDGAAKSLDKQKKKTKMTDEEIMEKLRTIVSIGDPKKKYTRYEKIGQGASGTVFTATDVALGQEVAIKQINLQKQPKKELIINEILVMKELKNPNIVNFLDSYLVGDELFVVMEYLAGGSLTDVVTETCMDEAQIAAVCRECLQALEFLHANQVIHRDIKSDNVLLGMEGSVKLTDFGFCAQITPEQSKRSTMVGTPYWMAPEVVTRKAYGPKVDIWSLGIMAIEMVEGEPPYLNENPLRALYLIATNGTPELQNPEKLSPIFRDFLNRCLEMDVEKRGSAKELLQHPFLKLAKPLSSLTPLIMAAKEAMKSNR

`CNC(=O)c1ccc2c(c1)C(=O)c1ccc(Nc3ccc(F)c(NC(=O)C4CC4)c3)cc1CC2` [Compound 2015] was tested, and the remaining activity at 0.2 µM (340 wild-type kinases [1]; 0.2 µM 2015, read-out: PAK2 residual activity) was 103%, the remaining activity at 1 µM (340 wild-type kinases [1]; 1 µM 2015, read-out: PAK2 residual activity) was 102% and the remaining activity at 0.2 µM (340 wild-type kinases [1]; PAK2, 0.2 µM, read-out: residual activity) was 103%. The remaining activity at 1 µM (340 wild-type kinases [1]; PAK2, 1 µM, read-out: residual activity) was 102%, the remaining activity at 0.2 µM (340 wild-type kinases [2]; 0.2 µM 2015, read-out: PRKG2 residual activity) was 112% and the remaining activity at 1 µM (340 wild-type kinases [2]; 1 µM 2015, read-out: PRKG2 residual activity) was 96.9%. For the same compound, the remaining activity at 0.2 µM (340 wild-type kinases [2]; PRKG2, 0.2 µM, read-out: residual activity) was 112%, the remaining activity at 1 µM (340 wild-type kinases [2]; PRKG2, 1 µM, read-out: residual activity) was 96.9% and the remaining activity at 0.2 µM (340 wild-type kinases [3]; 0.2 µM 2015, read-out: JNK2 residual activity) was 61.1%. For the same compound, the remaining activity at 1 µM (340 wild-type kinases [3]; 1 µM 2015, read-out: JNK2 residual activity) was 40.4%, the remaining activity at 0.2 µM (340 wild-type kinases [3]; JNK2, 0.2 µM, read-out: residual activity) was 61.1% and the remaining activity at 1 µM (340 wild-type kinases [3]; JNK2, 1 µM, read-out: residual activity) was 40.4%. For the same compound, the “effect on JNK2 (in words)” value (340 wild-type kinases [3]; panel of 340 kinases, 1 µM and 0.2 µM) was “moderate influence”, the remaining activity at 0.2 µM (340 wild-type kinases [4]; 0.2 µM 2015, read-out: TBK1 residual activity) was 120% and the remaining activity at 1 µM (340 wild-type kinases [4]; 1 µM 2015, read-out: TBK1 residual activity) was 101%. For the same compound, the remaining activity at 0.2 µM (340 wild-type kinases [4]; TBK1, 0.2 µM, read-out: residual activity) was 120%, the remaining activity at 1 µM (340 wild-type kinases [4]; TBK1, 1 µM, read-out: residual activity) was 101% and the remaining activity at 0.2 µM (340 wild-type kinases [5]; 0.2 µM 2015, read-out: IKKbeta residual activity) was 108%. For the same compound, the remaining activity at 1 µM (340 wild-type kinases [5]; 1 µM 2015, read-out: IKKbeta residual activity) was 99%, the remaining activity at 0.2 µM (340 wild-type kinases [5]; IKKbeta, 0.2 µM, read-out: residual activity) was 108% and the remaining activity at 1 µM (340 wild-type kinases [5]; IKKbeta, 1 µM, read-out: residual activity) was 99%.
